Measured values: paper PMC5507300, “Antibacterial small molecules targeting the conserved TOPRIM domain of DNA gyrase” (PLoS ONE, 2017)
“Also recorded” adds a separate entry of the source.

Columns and labels:
Format in all cases: biochemical
E. coli DNA gyrase [1] = biological target: T1, E. coli DNA gyrase (Escherichia coli, UniProt P0AES6); test: Agarose gel DNA gyrase supercoiling assay, E. coli
T1 construct: purchased New England Biolabs, Beverly, MA
Experimental: Conditions to measure the supercoiling of a relaxed, closed-circular plasmid substrate and cleavage complex stabilization in agarose gels were adapted from the literature and carried out as described below. Plasmid supercoiling reactions were assembled by combining 0.4 μL compound (in 100% DMSO), 12.5 μL H2O, 4 μL 5Xbuffer, 0.4 μL relaxed pUC19 DNA substrate (0.5 μg), […] dilute DNA gyrase (buffer, substrate, and enzyme from New England Biolabs, Beverly, MA). Alternatively the substrate pHOT-1 (TopoGEN, Buena Vista, CO) was used as noted (the substrate from New England Biolabs has been discontinued). P. aeruginosa DNA gyrase was supplied by Inspiralis, Norwich, UK. Reactions were allowed to proceed for 30 min. at 37°C after which 5 μL of stop buffer (5% sarkosyl, 25% glycerol, 1X Blue Juice [Invitrogen, Carlsbad, CA]) were added. Reactions were then extracted with 20 μL chloroform/isoamylOH (24:1) and a portion of the aqueous phase was loaded into a well in a 1% agarose/Tris-borate EDTA gel. Electrophoresis was conducted at 35 VDC until the loading dye migrated about 6.5 cm down the gel. DNA in the gel was then stained in 0.5 μg/mL ethidium bromide in water for 30 min. and rinsed (3X) in H2O. The gel was illuminated with UV light, photographed, and DNA quantitated with an Alpha Imager and accompanying software (ProteinSimple, San Jose, CA).

E. coli DNA gyrase [2] = biological target: T1, E. coli DNA gyrase; test: Cleavage complex stabilization gel assay; settings: supercoiled pUC19
Experimental: Cleavage complex stabilization was detected by assembling a gyrase reaction, as above, containing 0.4μL compound (in 100% DMSO), 12.5 μL H2O, 4 μL 5X buffer, 0.4 μL supercoiled pUC19 DNA substrate (0.4 μg), 3 μL gyrase (15 U). The reaction was incubated at 25°C for 60 min. after which 3 μL 2% SDS and 3 μL 1 mg/mL proteinase K were added. […] DNA in the gel was illuminated with UV light and photographed as above.

[3] = biological target: T2, wild-type E. coli DNA gyrase (recombinant GyrA/GyrB) (Escherichia coli, UniProt P0AES6); test: Gel supercoiling assay, reconstituted wild-type gyrase
T2 construct: made in house; host or cells: E. coli BL21(DE3) RIL
Experimental: Conditions to measure the supercoiling of a relaxed, closed-circular plasmid substrate and cleavage complex stabilization in agarose gels were adapted from the literature and carried out as described below. Plasmid supercoiling reactions were assembled by combining 0.4 μL compound (in 100% DMSO), 12.5 μL H2O, 4 μL 5Xbuffer, 0.4 μL relaxed pUC19 DNA substrate (0.5 μg), […] dilute DNA gyrase (buffer, substrate, and enzyme from New England Biolabs, Beverly, MA). Alternatively the substrate pHOT-1 (TopoGEN, Buena Vista, CO) was used as noted (the substrate from New England Biolabs has been discontinued). P. aeruginosa DNA gyrase was supplied by Inspiralis, Norwich, UK. […] The gel was illuminated with UV light, photographed, and DNA quantitated with an Alpha Imager and accompanying software (ProteinSimple, San Jose, CA). […]
The E. coli gyrA and gyrB (wild-type and t1537c (F513L)) genes with a N-terminal His6 tag sequence followed by Tobacco Etch Virus (TEV) cleavage site ([…]) were cloned into pET28(+) vector (EMD Millipore). […] Fractions containing gyrase subunit protein (as monitored by sodium dodecyl sulfate polyacrylamide gel electrophoresis (SDS-PAGE)) were pooled and loaded onto a Q-Sepharose column (GE Healthcare, Princeton, NJ, USA) equilibrated in 20 mM Tris-HCl (pH = 7.9), 25mM NaCl, 10% glycerol, and 2 mM β-mercaptoethanol. […]

Cn1ncc2cc(-c3cnnn3C3CCN(C(=O)Nc4cc(Cl)cc(Cl)c4)CC3)ccc21 [MRL-423]
IC50 (E. coli DNA gyrase [1]): ~7.5 µM | cleavage complex stabilization (E. coli DNA gyrase [2]): stabilizes cleavage complex formation in a dose-dependent fashion

COc1ccc(C)cc1NC(=O)N1CCC(n2nncc2-c2ccc3c(cnn3C)c2)CC1 [MRL-770]
inhibition of E. coli DNA gyrase (gel) (E. coli DNA gyrase [1]; S1 Fig, pHOT-1 substrate): limited; also recorded: dose-dependent inhibition of enzyme activity

Cn1ncc2cc(-c3nnnn3C3CCN(C(=O)Nc4ccc(Cl)c(Cl)c4)CC3)ccc21 [MRL-1082]
IC50 [3]: ~3.5 µM
